{
  "source": "paper PMC10215448",
  "about": "“The Antimicrobial Effects of Colistin Encapsulated in Chelating Complex Micelles for the Treatment of Multi-Drug-Resistant Gram-Negative Bacteria: A Pharmacokinetic Study” (Antibiotics, 2023)",
  "key": {"[1]": {"system": "Acinetobacter baumannii 10591", "assay": "MIC by broth microdilution", "format": "cell-based", "conditions": "Mueller-Hinton broth, 5 x 10^5 CFUs/mL, 37 °C, 24 h", "protocol": "(§1) Antimicrobial effects of the colistin and CCM-CL against P. aeruginosa ATCC 27853, A. baumannii BCRC 10591, and P. aeruginosa 048,431 were determined by the minimal inhibitory concentration (MIC). P. aeruginosa ATCC […] and A. baumannii BCRC 10591 are standard strains; they were purchased from the American Type Culture Collection and Biosource Collection and Research Center, Taiwan, respectively. P. aeruginosa 048431 is a carbapenem-resistant blood isolate from a patient with lung adenocarcinoma and ventilator-associated pneumonia. The broth microdilution method determined the MICs for the study drugs. Briefly, serial doubling dilutions of antimicrobial agents were made in a Mueller–Hinton broth. The final bacterial suspension in the mixture was adjusted to 5 × 10^5 CFUs/mL, and the exact colony count was measured by plating 10-fold serially diluted specimens of 100 μL aliquots on drug-free nutrient agar (Difco Laboratories, Franklin, NJ, USA). The mixtures of bacteria and drugs were incubated at 37 °C for 24 h. The MIC is defined as the lowest antibiotic concentration preventing visible growth in broth."}, "[2]": {"system": "Pseudomonas aeruginosa 048431 (carbapenem-resistant blood isolate)", "assay": "MIC by broth microdilution", "format": "cell-based", "conditions": "Mueller-Hinton broth, 5 x 10^5 CFUs/mL, 37 °C, 24 h", "protocol": "as §1"}, "[3]": {"system": "Pseudomonas aeruginosa ATCC27853", "assay": "MIC by broth microdilution", "format": "cell-based", "conditions": "Mueller-Hinton broth, 5 x 10^5 CFUs/mL, 37 °C, 24 h", "protocol": "as §1"}, "male C57BL/6 mice": {"system": "male C57BL/6 mice", "assay": "No observed adverse effect level (NOAEL), up-and-down procedure", "format": "in vivo", "conditions": "for No. of Survival/Total Mice: 6 mg/mL, 8-week-old male C57BL/6 mice", "protocol": "In the up-and-down method, animals were dosed one at a time. If an animal survived, the dose for the next animal increased; if it died, the next dose decreased. This test determined the safety of a single dose for intravenous bolus injection and 3 min infusion."}, "[4]": {"assay": "Pharmacokinetic study, plasma colistin after intravenous dosing", "format": "in vivo, Sprague-Dawley (SD) rats", "conditions": "male SD rats, iv 3 mg/kg for 15 min, LC-MS; for t1/2, elimination half-time T1/2(β): 3 rats per group, colistin one-compartment, CCM-CL two-compartment model (PKsolver), 3 mg/kg", "protocol": "Chromatographic separation was performed by the ACQUITY UHPLC system (Waters Corporation, Milford, MA, USA) on a Phenomenex Kinetex EVO C18 column (150 mm × 4.6 mm; I.D. 5 μm) maintained at 25 ± 5 °C. The mobile phase consisted of solution ‘A’ (acetonitrile) and solution ‘B’ (0.05% trifluoroacetic acid in water, v/v). The percentage was initially set at 10% and increased to 60% within 5 min, using a flow rate of 0.5 mL/min. […] The total run time was 9 min, and the injection volume was 20 μL. We set the autosampler at 10 ± 5 °C. The ultra-performance liquid chromatography (UHPLC) was interfaced to an ACQUITY QDa detector (Waters Corporation) with electrospray ionization […] in positive mode used for detection. The optimized tuning parameters were as follows: capillary voltage, 0.3 kV; cone voltage, 8 V; and probe temperature, 600 °C. The mass transitions were m/z 585.5 for colistin A, 578.5 for colistin B, and 602.8 for polymyxin B (an internal standard).\nSample pre-treatment: Five microliters of polymyxin B (Toronto Research Chemicals, CAS number 1405-20-5) dissolved in water (420 μg/mL, an internal standard) was added to 100 μL rat plasma sample. After that, 400 μL of acetonitrile and 10% trichloroacetic acid mixed solution (50/50, v/v) was added. The samples were vortex-mixed for 1 min and then centrifuged at 12,000 rpm for 10 min. Following centrifugation, the supernatant was collected and filtered with 0.45 μm PVDF membrane filter for analysis.\nThe day before the pharmacokinetic study, the right carotid artery of each rat was cannulated for collection of blood samples. Following surgery, rats were individually housed in metabolic cages and were given 24 h for recovery. […] Blood plasma was collected at min 0, 15, 60, 120, and 180 following drug infusion. All blood samples were collected and transferred into an EDTA-K2 tube, and were then centrifuged at 1500 rcf for 10 min at 4 °C. The experiments were repeated three times. After centrifugation, the plasma was collected and examined by LC-MS. In previous pharmacokinetic studies, colistin is best described by the one-compartment linear model. […] CMS is hydrolyzed to form partially sulfomethylated derivatives as well as colistin sulfate, the active form of the drug. Like CMS, colistin is released from CCM-CL once ferrous ions in the CCM complex are captured by transferrin [34]. Therefore, we estimated the pharmacokinetics for colistin using the one-compartment model and CCM-CL using the two-compartment model. The data were analyzed using PKsolver (Microsoft Excel)."}, "[5]": {"system": "carbapenem-resistant P. aeruginosa 048431 pneumonia", "assay": "Survival study in the neutropenic murine pneumonia model", "format": "in vivo", "conditions": "neutropenic (cyclophosphamide) male C57BL/6 mice, intratracheal P. aeruginosa 048431, 8 mg/kg iv 90 min after infection and again on day 2, n = 10", "protocol": "(§2) Male C57BL/6 mice (21 to 23 g) were divided into three groups (namely control, free colistin, and CCM-CL), with 10 mice in each group. All animals were administered 150 mg/kg of cyclophosphamide intraperitoneally, 3 days and 1 day before infection. At day 0 (defined as infection day), mice were infected with 0.04 mL of a drug-resistant strain P. aeruginosa 048431, which was administered intratracheally at a concentration of 5 × 10^5 CFUs/mL. Ninety minutes later, water, free colistin, and CCM-CL were administered intravenously at 8 mg/kg. On day 2, free colistin and CCM-CL at a dose of 8 mg/kg and water were administered again (Figure 5).\nData were analyzed using WinSTATt (Microsoft Excel). Overall survival probabilities […] were estimated using the Kaplan–Meier method. The log-rank test (Cox–Mantel) was used to test significant differences in survival among groups."}, "[6]": {"system": "carbapenem-resistant P. aeruginosa (CRPA)", "assay": "Bacterial load in lung of infected mice", "format": "in vivo, C57BL/6 mice", "conditions": "mice infected intratracheally, drug iv 1.5 h after infection, sacrificed 48 h later, lung homogenate 10-fold diluted, 48 h incubation", "protocol": "as §2\nThis study was conducted and administered along with the survival assay. The pulmonary burden of P. aeruginosa was determined on the third day. Mice were sacrificed with carbon dioxide; then, their lungs were removed aseptically and rinsed with sterile saline. The lungs were treated with a homogenizer and then subjected to a 10-fold series of dilutions; 0.05 mL of each dilution was plated on dextrose agar. The plates were then incubated at 37 °C for 2 days, and the colonies were then enumerated."}},
  "note": "Structures can show the parent of a compound that is named as a salt. Bridge positions count the residues as written; N and C are the ends. Square brackets hold non-standard residues; d marks the D form. Peptide text beside a SMILES is read from it. * marks the point of attachment. X1 = CC[C@H](C)CCCCC(=O)*; Dab = NCC[C@H](N)C(=O)O",
  "data": [
    {"compound": "CC[C@H](C)CCCCC(=O)N[C@@H](CCN)C(=O)N[C@H](C(=O)N[C@@H](CCN)C(=O)N[C@H]1CCNC(=O)[C@H]([C@@H](C)O)NC(=O)[C@H](CCN)NC(=O)[C@H](CCN)NC(=O)[C@H](CC(C)C)NC(=O)[C@@H](CC(C)C)NC(=O)[C@H](CCN)NC1=O)[C@@H](C)O", "note": "[Colistin, Colistin sulfate] (X1-[Dab]T[Dab][Dab][Dab][dL]L[Dab][Dab]T; lactam 4-C)", "values": [
      {"measurement": "Minimal inhibitory concentration", "setting": "[1]", "value": 2},
      {"measurement": "Minimal inhibitory concentration", "setting": "[2]", "value": 0.5},
      {"measurement": "Minimal inhibitory concentration", "setting": "[3]", "value": 0.5},
      {"measurement": "No. of Survival/Total Mice", "setting": "male C57BL/6 mice; intravenous bolus injection, single dose 8 mg/kg", "value": "5/5"},
      {"measurement": "No. of Survival/Total Mice", "setting": "male C57BL/6 mice; intravenous bolus injection, single dose 13 mg/kg", "value": "0/1"},
      {"measurement": "No. of Survival/Total Mice", "setting": "male C57BL/6 mice; intravenous bolus injection, single dose 20 mg/kg", "value": "1/3"},
      {"measurement": "Safe dosage (NOAEL), slow infusion", "setting": "male C57BL/6 mice; single 3 min intravenous infusion, male C57BL/6 mice", "value": 8, "unit": "mg/kg"},
      {"measurement": "Safe (NOAEL) dose, bolus", "setting": "male C57BL/6 mice; single intravenous bolus injection, male C57BL/6 mice", "value": 13, "unit": "mg/kg"},
      {"measurement": "No. of Survival/Total Mice", "setting": "male C57BL/6 mice; slow infusion (3 min), single dose 13 mg/kg", "value": "0/1"},
      {"measurement": "AUC0–t", "setting": "[4]; plasma sampled to 180 min", "value": 239.31, "unit": "mg·min/L"},
      {"measurement": "AUC0–inf", "setting": "[4]; plasma", "value": 239.32, "unit": "mg·min/L"},
      {"measurement": "Cmax", "setting": "[4]; plasma", "value": 9030, "unit": "ng/mL"},
      {"measurement": "t1/2, elimination half-time T1/2(β)", "setting": "[4]; plasma", "value": 12.46, "unit": "min"},
      {"measurement": "t1/2, elimination half-time T1/2(β)", "setting": "[4]; plasma, listed as free colistin", "value": 102.23, "unit": "min"},
      {"measurement": "14-day survival rate", "setting": "[5]", "value": 30, "unit": "%"},
      {"measurement": "Colony counts of CRPA isolated from the lungs", "setting": "[6]", "value": 60, "unit": "CFU"}
    ]}
  ]
}
